Assay in series [1]: not given
This is another data set of the same source.

The nature of series [2]: in vitro. The conditions noted are these: rat, hepatocytes.
Series [3] can be described thus: in vitro. The conditions noted are these: human, hepatocytes.
Series [4] has as its target T1, KOR (kappa opioid receptor) (Homo sapiens, UniProt P41145).
T1 construct: expressed in transfected cells; host or cells: CHO-K1 cells stably expressing KOR
In words: cell-based.

Series [5] concerns the target T2, recombinant human mu (MOR) opioid receptor (Homo sapiens, UniProt P35372).
T2 construct: expressed in transfected cells; host or cells: CHO-K1 cell membranes
In words: biochemical. The format is binding. The conditions noted are these: for inhibition at 10 µM: read-out: Mu receptor % inhibition at single concentration, % inhibition @ 10 μM.

Series [6] deals with T3, recombinant human kappa (KOR) opioid receptor (Homo sapiens, UniProt P41145).
T3 construct: expressed in transfected cells; host or cells: CHO-K1 cell membranes
T3 sequence (P41145 whole entry): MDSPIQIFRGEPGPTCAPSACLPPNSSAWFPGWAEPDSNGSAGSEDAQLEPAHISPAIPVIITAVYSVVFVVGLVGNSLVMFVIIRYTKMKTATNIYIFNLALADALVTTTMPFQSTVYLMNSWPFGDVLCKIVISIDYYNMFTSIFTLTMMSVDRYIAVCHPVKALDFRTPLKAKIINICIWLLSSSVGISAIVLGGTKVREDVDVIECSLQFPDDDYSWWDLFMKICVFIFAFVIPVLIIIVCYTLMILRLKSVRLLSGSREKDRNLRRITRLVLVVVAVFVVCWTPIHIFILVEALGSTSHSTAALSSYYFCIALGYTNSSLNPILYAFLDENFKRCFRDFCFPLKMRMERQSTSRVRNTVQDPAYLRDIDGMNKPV
The experiment in a line: biochemical. The series is classed as binding.

T2 sequence (P35372 whole entry): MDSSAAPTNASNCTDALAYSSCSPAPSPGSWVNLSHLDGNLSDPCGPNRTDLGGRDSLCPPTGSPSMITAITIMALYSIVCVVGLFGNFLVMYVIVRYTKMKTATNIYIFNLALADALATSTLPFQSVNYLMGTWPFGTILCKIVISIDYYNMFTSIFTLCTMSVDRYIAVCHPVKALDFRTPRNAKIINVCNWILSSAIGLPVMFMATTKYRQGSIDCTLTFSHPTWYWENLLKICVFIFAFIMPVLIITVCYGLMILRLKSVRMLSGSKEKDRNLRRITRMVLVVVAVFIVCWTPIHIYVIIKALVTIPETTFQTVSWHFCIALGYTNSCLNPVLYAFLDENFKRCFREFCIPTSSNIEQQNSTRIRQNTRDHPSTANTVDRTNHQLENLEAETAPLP
T1 sequence (P41145 whole entry): as the sequence (P41145 whole entry) above

As for `CN(C(=O)C(c1ccccc1)c1ccccc1)[C@H](CN1CC[C@H](O)C1)c1ccccc1` [Asimadoline, asimadoline, reference compound], the “In vitro Hepatocyte Clearance, Rat % hep Blood flow” value amounted to 85.0%. Further, the “In vitro Hepatocyte Clearance, Human % hep Blood flow” value in series [1] was 79.0%. Further, the CLhep predicted in the series “in vitro [2]” is 51 mL/min/kg. For the same molecule, the CLhep predicted in the series “in vitro [3]” was 18.2 mL/min/kg.
On the same counts, the results for `CN(C(=O)Cc1ccc(Cl)c(Cl)c1)[C@H](CN1CCCC1)c1ccccc1` [ICI-199,441, reference compound] are 73.0%, 85.0%, 44 mL/min/kg and 19.7 mL/min/kg.
In the case of `COCCOCCOCCO[C@H]1CCN(C[C@H](c2ccccc2)N(C)C(=O)Cc2ccc(Cl)c(Cl)c2)C1.Cl` [compound 4, 2-(3,4-Dichlorophenyl)-N-{(1S)-2-[(3S)-3-(2-(2-(2-methoxyethoxy)ethoxy]ethoxy)pyrrolidin-1-yl)-1-phenylethyl}-N-methylacetamide], the “In vitro Hepatocyte Clearance, Rat % hep Blood flow” value is on record as 82%. In series [1], the “In vitro Hepatocyte Clearance, Human % hep Blood flow” value came out at 84%. Also, the CLhep predicted in “in vitro [2]” was 49 mL/min/kg. In series [4], this molecule returned an EC50 of 0.42 nM. Moreover, the CLhep predicted in the series “in vitro [3]” is 19.4 mL/min/kg. In series [5], the IC50 is 20400 nM and the inhibition at 10 µM came to 82%. Also, in series [6], the half-inhibitory concentration (IC50) came out at 8.9 nM and the Ki worked out at 2.1 nM.
As for `COCCOCCOCCNC(=O)O[C@H]1CCN(C[C@H](c2ccccc2)N(C)C(=O)Cc2ccc(Cl)c(Cl)c2)C1.Cl` [compound 5, (3S)-1-[(2S)-2-{[(3,4-Dichlorophenyl)acetyl](methyl)amino}-2-phenylethyl]pyrrolidin-3-yl {2-[2-(2-methoxyethoxy)ethoxy]ethyl}carbamate], the “In vitro Hepatocyte Clearance, Rat % hep Blood flow” value was 82%. Also, in series [1], the “In vitro Hepatocyte Clearance, Human % hep Blood flow” value turned out to be 88%. The CLhep predicted in the series “in vitro [2]” was 49.1 mL/min/kg. The EC50 in series [4] stood at 75.7 nM. Moreover, the CLhep predicted in “in vitro [3]” was 20.4 mL/min/kg. In series [5], the inhibition at 10 µM amounted to 35.6%. Moreover, in series [6], the IC50 amounted to 1190 nM and the Ki was found to be 275 nM.
In the case of `COCCOCCOCCOCCOCCNC(=O)O[C@H]1CCN(C[C@H](c2ccccc2)N(C)C(=O)Cc2ccc(Cl)c(Cl)c2)C1.Cl` [compound 6, (3S)-1-[(2S)-2-{[(3,4-Dichlorophenyl)acetyl](methyl)amino}-2-phenylethyl]pyrrolidin-3-yl 2,5,8,11,14-pentaoxahexadecan-16-ylcarbamate], the “In vitro Hepatocyte Clearance, Rat % hep Blood flow” value turned out to be 81%. In addition, the “In vitro Hepatocyte Clearance, Human % hep Blood flow” value in series [1] is given as 86%. In the series “in vitro [2]”, the CLhep predicted was 48.8 mL/min/kg. Moreover, in series [4], the EC50 amounted to 56 nM. Moreover, the CLhep predicted in “in vitro [3]” is 20.1 mL/min/kg. Also, in series [5], the IC50 stood at 31200 nM and the inhibition at 10 µM is 20.6%. For the same molecule, in series [6], the half-inhibitory concentration (IC50) came to 1100 nM and the Ki is 255 nM.
As for `CCN(CCOC)C[C@H](c1ccccc1)N(C)C(=O)Cc1ccc(Cl)c(Cl)c1.Cl` [compound 10, 2-(3,4-Dichlorophenyl)-N-{(1S)-2-[ethyl(2-methoxyethyl)amino]-1-phenylethyl}-N-methylacetamide], the “In vitro Hepatocyte Clearance, Rat % hep Blood flow” value was found to be 83%. In addition, the “In vitro Hepatocyte Clearance, Human % hep Blood flow” value in series [1] turned out to be 89%. In the series “in vitro [2]”, the CLhep predicted was 49.7 mL/min/kg. In addition, the EC50 in series [4] was determined as 3.1 nM. Also, in the series “in vitro [3]”, the CLhep predicted is 20.6 mL/min/kg. In addition, the inhibition at 10 µM in series [5] came out at 82.8%. Moreover, in series [6], the IC50 came to 82.7 nM and the inhibition constant (Ki) was 19.1 nM.
For the molecule `CN(C(=O)Cc1ccc(Cl)c(Cl)c1)[C@H](CN1CCCC1)c1cccc(NS(=O)(=O)CCOCC(F)(F)F)c1.Cl` [compound 19, 2-(3,4-dichlorophenyl)-N-methyl-N-{(1S)-2-(pyrrolidin-1-yl)-1-[3-({[2-(2,2,2-trifluoroethoxy)ethyl]sulfonyl}amino)phenyl]ethyl}acetamide], the “In vitro Hepatocyte Clearance, Rat % hep Blood flow” value is 45%. Moreover, the “In vitro Hepatocyte Clearance, Human % hep Blood flow” value in series [1] came out at 50%. The CLhep predicted in “in vitro [2]” is 26.8 mL/min/kg. Moreover, in series [4], the response was half-maximal at 0.08 nM (EC50). Further, the CLhep predicted in “in vitro [3]” is 11.7 mL/min/kg. Also, the inhibition at 10 µM in series [5] is 99.1%. Moreover, in series [6], the IC50 worked out at 0.69 nM and the Ki is 0.16 nM.
`CN(C(=O)Cc1ccc(Cl)c(Cl)c1)[C@H](CN1CC[C@H](OCCOCC(=O)O)C1)c1ccccc1` [compound 28, [2-({(3S)-1-[(2S)-2-{[(3,4-Dichlorophenyl)acetyl](methyl)amino}-2-phenylethyl]pyrrolidin-3-yl}oxy)ethoxy]acetic Acid] had an EC50 in series [4] of 148 nM. In addition, in series [5], the IC50 turned out to be 73400 nM and the inhibition at 10 µM came to 4.9%. Further, in series [6], the half-maximal inhibitory concentration (IC50) worked out at 2100 nM and the Ki came to 274 nM.
The corresponding values for `CN(C(=O)Cc1ccc(Cl)c(Cl)c1)[C@H](CN1CC[C@H](OCCOCCOCC(=O)O)C1)c1ccccc1` [compound 29, {2-[2-({(3S)-1-[(2S)-2-{[(3,4-Dichlorophenyl)acetyl](methyl)amino}-2-phenylethyl]pyrrolidin-3-yl}oxy)ethoxy]ethoxy}acetic Acid] are 41.2 nM, 25900 nM, 30.5%, 580 nM and 111 nM.
As to `CCCCOCCOCCOCCS(=O)(=O)Nc1cccc([C@@H](CN2CCCC2)N(C)C(=O)Cc2ccccn2)c1` [compound 30, N-[(1S)-1-{3-[({2-[2-(2-Butoxyethoxy)ethoxy]ethyl}sulfonyl)amino]phenyl}-2-(pyrrolidin-1-yl)ethyl]-N-methyl-2-(pyridin-2-yl)acetamide], in series [4], the response was half-maximal at 38.9 nM (EC50). The inhibition at 10 µM in series [5] was determined as 85.5%. Also, in series [6], the IC50 was 464 nM and the Ki turned out to be 60.5 nM.
In series [4], `COCCOCCOCCO[C@H]1CCN(C[C@H](c2ccc(OCCO)cc2)N(C)C(=O)Cc2ccc(Cl)c(Cl)c2)C1` [compound 37, 2-(3,4-Dichlorophenyl)-N-{(1S)-1-[4-(2-hydroxyethoxy)phenyl]-2-[(3S)-3-{2-[2-(2-methoxyethoxy)ethoxy]ethoxy}pyrrolidin-1-yl]ethyl}-N-methylacetamide] returned an EC50 of 4.15 nM. In addition, in series [5], the inhibition at 10 µM came out at 57.8%. In series [6], the IC50 was found to be 98.1 nM and the inhibitory constant (Ki) turned out to be 22.6 nM.
On the same counts, the results for `CN(C(=O)Cc1ccc(Cl)c(Cl)c1)[C@H](CN1CC[C@H](O)C1)c1ccc(OCCO)cc1` [compound 38, 2-(3,4-dichlorophenyl)-N—((S)-1-(4-(2-hydroxyethoxy)phenyl)-2-((S)-3-hydroxypyrrolidin-1-yl)ethyl)-N-methylacetamide] are 0.03 nM, 87.2%, 0.49 nM and 0.06 nM.
In turn, `COCCOCCOCCOCCOCCN1CCN(C[C@H](c2ccccc2)N(C)C(=O)Cc2ccc(Cl)c(Cl)c2)CC1` [compound 39, (S)—N-(2-(4-(2,5,8,11,14-pentaoxahexadecan-16-yl)piperazin-1-yl)-1-phenylethyl)-2-(3,4-dichlorophenyl)-N-methylacetamide] displayed an EC50 in series [4] of 1950 nM. The inhibition at 10 µM in series [5] was determined as 9.6%. Moreover, in series [6], the half-maximal inhibitory concentration (IC50) is 18500 nM and the Ki was 4270 nM.
For the molecule `COCCOCCOCCOCCOCCOCCOCCOC(=O)N[C@H](C(=O)Nc1cccc([C@@H](CN2CC[C@H](O)C2)N(C)C(=O)Cc2ccc(Cl)c(Cl)c2)c1)C(C)C` [compound 48, N-(3-{(1S)-1-{[(3,4-Dichlorophenyl)acetyl](methyl)amino}-2-[(3S)-3-hydroxypyrrolidin-1-yl]ethyl}phenyl)-N^2-2,5,8,11,14,17,20,23-octaoxatetracosan-1-oylvalinamide], the midpoint of the response in series [4], the EC50, lay at 0.43 nM. For the same molecule, the inhibition at 10 µM in series [5] was determined as 73.2%. Moreover, in series [6], the IC50 is 3.48 nM and the Ki turned out to be 0.8 nM.
On the same counts, the results for `COCCOCCOCCOCCOCCOCCOCCOC(=O)NC1(C(=O)Nc2cccc([C@@H](CN3CC[C@H](O)C3)N(C)C(=O)Cc3ccc(Cl)c(Cl)c3)c2)CC1` [compound 49, 2,5,8,11,14,17,20-Heptaoxadocosan-22-yl {1-[(3-{(1S)-1-{[(3,4dichlorophenyl)acetyl](methyl)amino}-2-[(3S)-3-hydroxypyrrolidin-1yl]ethyl}phenyl)carbamoyl]cyclopropyl}carbamate] are 0.11 nM, 78.1%, 1.61 nM and 0.37 nM.
Molecule `COCCOCC(=O)Nc1cccc([C@@H](CN2CC[C@H](O)C2)N(C)C(=O)Cc2ccc(Cl)c(Cl)c2)c1` [compound 50, 2-(3,4-dichlorophenyl)-N-[(1S)-2-[(3S)-3-hydroxypyrrolidin-1-yl]-1-(3-{[(2-methoxyethoxy)acetyl]amino}phenyl)ethyl]-N-methylacetamide] came in with an EC50 in series [4] of 0.06 nM. Further, in series [5], the inhibition at 10 µM was found to be 101%. Further, in series [6], the IC50 came out at 0.52 nM and the Ki was 0.12 nM.
On the same counts, the results for `CN(C(=O)C(c1ccccc1)c1ccccc1)[C@H](CN1CCCC1)c1cccc(N)c1` [compound 51, (S)—N-Methyl-N-(1-(3-aminophenyl)-2-(pyrrolidin-1-yl)ethyl)-2,2-diphenylacetamide] are 5.18 nM, 54.5%, 62.2 nM and 14.3 nM.

The values are drawn from US11111214B2 (priority 2013, dated 2021).
